This is an account of results in patent US6306893A, “Taxoid derivatives and process for producing the same” (Ensuiko Sugar Refining Company, Ltd, priority 2000, dated 2001).

Converted amounts (≈) assume the structure as drawn. “Also recorded” adds a separate entry of the source.

Data set [1] is described as follows: Solubility in water (18 h stirring, filtration, HPLC). To be noted: for solubility at 18 h: water. How it is done:
10 mg of each of paclitaxel, 7-GAG-PT, 7-MAG-PT, 10-GAG-DT (α-anomer), 10-GAG-DT (β-anomer) and 10-MAG-DT (α-anomer)was weighed. To those were added 5 ml of water and the mixture was stirred for 18 hours. After completion of the stirring, supernatant was filtered through a membrane filter (0.45 μm), and the filtrate was analyzed by HPLC. The conditions of HPLC analysis were as follows.

The next data set has as its system P388 leukemia cells. The experiment in a line: Antitumor test in mice implanted with P388 leukemia cells: survival days. In kind it is in vivo, mouse. To be noted: for Median of Survival Days: P388 i.p. in CDF1 male mice, control 7 days; for Median of Survival Days / % T/C: 20 mg/kg i.p., 5 consecutive days; for % T/C: median survival days treated × 100 / median of control.

The conditions of data set [2]: cited from earlier work; for Solubility in water: background statement.
Data set [3] in a line: Change in body weight of P388 leukemia cell implanted mice. In kind it is in vivo, mouse. To be noted: after i.p. administration. How it is done: FIG. 1 is a graph illustrating effect of taxoid derivatives on the body weight of P388 leukemia cell implanted mouse.
The mice used were 7 weeks age CDFl mice (male). P388 leukemia cells subcultured in DBA/2 mouse abdominal cavity were injected in the abdominal cavity in an amount of 10^6 cells per mouse. In the case of paclitaxel, samples were dissolved in a solution of ethanol:cremophor=1:1 to a concentration of 6 mg/ml and then diluted 30 times with physiological saline. This was administered intraperitoneally in a dose of 0.1 ml/10 g mouse/time. In the case of taxoid derivatives, samples were dissolved in a solution of ethanol:cremophor=1:1 to a concentration of 60 mg/ml and then diluted 30 times with physiological saline. This was administered intraperitoneally in a dose of 0.1 ml/10 g mouse/time.
The tests were performed by administering the sample for consecutive 5 days starting from the day next to the day when the P388 leukemia cells were injected into the abodominal cavity and observing survival days and change in body weight.

The mark [4] stands for this setting: ratio to paclitaxel (0.4 μg/ml).

As a reminder, the solubility is how much of the substance goes into solution per volume. A low value points to a poorly soluble substance.

Text for P388 leukemia cells: ^a) Median of survival days of each treated group (day) ×
100/Median of survival days of control group (day)

Take `CC(=O)O[C@H]1C(=O)[C@]2(C)[C@@H](OC(=O)COC3O[C@H](CO)[C@H](O)[C@H](O)[C@H]3O)C[C@H]3OC[C@@]3(OC(C)=O)[C@H]2[C@H](OC(=O)c2ccccc2)[C@]2(O)C[C@H](OC(=O)[C@H](O)[C@@H](NC(=O)c3ccccc3)c3ccccc3)C(C)=C1C2(C)C` (stereo partly shown) [7-GAG-PT, Galactosyloxyacetyl-7-paclitaxel]: the “Solubility in water relative to paclitaxel” value in data set [1] (setting [4]) came to 169 times. Also, in data set [1], the solubility at 18 h stood at 67.8 µg/mL (≈ 63.1 µM).

With `CC(=O)O[C@H]1C(=O)[C@]2(C)[C@@H](OC(=O)COC3O[C@H](CO)[C@@H](O)[C@H](O)[C@@H]3O)C[C@H]3OC[C@@]3(OC(C)=O)[C@H]2[C@H](OC(=O)c2ccccc2)[C@]2(O)C[C@H](OC(=O)[C@H](O)[C@@H](NC(=O)c3ccccc3)c3ccccc3)C(C)=C1C2(C)C` (stereo partly shown) [7-MAG-PT, Mannosyloxyacetyl-7-paclitaxel], the “Solubility in water relative to paclitaxel” value in data set [1] (setting [4]) worked out at 257 times. Moreover, the solubility at 18 h in data set [1] was 103 µg/mL (≈ 95.9 µM).

For the compound `CC(=O)O[C@@]12CO[C@@H]1C[C@H](O)[C@@]1(C)C(=O)[C@H](OC(=O)CO[C@H]3O[C@H](CO)[C@H](O)[C@H](O)[C@H]3O)C3=C(C)[C@@H](OC(=O)[C@H](O)[C@@H](NC(=O)OC(C)(C)C)c4ccccc4)C[C@@](O)([C@@H](OC(=O)c4ccccc4)[C@H]21)C3(C)C` [10-GAG-DT (α-anomer), Galactosyloxyacetyl-10-docetaxel], in data set [1], the “Solubility in water relative to paclitaxel” value is on record as 1204 times and the solubility at 18 h was determined as 482 µg/mL (≈ 469 µM). Further, in the data set with P388 leukemia cells, the “Median of Survival Days” value was 12 days and the “% T/C” value is 171%.

Turning to `CC(=O)O[C@@]12CO[C@@H]1C[C@H](O)[C@@]1(C)C(=O)[C@H](OC(=O)CO[C@@H]3O[C@H](CO)[C@H](O)[C@H](O)[C@H]3O)C3=C(C)[C@@H](OC(=O)[C@H](O)[C@@H](NC(=O)OC(C)(C)C)c4ccccc4)C[C@@](O)([C@@H](OC(=O)c4ccccc4)[C@H]21)C3(C)C` [10-GAG-DT (β-anomer), Galactosyloxyacetyl-10-docetaxel], in data set [1], the “Solubility in water relative to paclitaxel” value was found to be 753 times and the concentration in solution (solubility at 18 h) came to 301 µg/mL (≈ 293 µM). For the same compound, in the data set on P388 leukemia cells, the “Median of Survival Days” value was found to be 12 days and the “% T/C” value is listed as 171%.

Turning to `CC(=O)O[C@@]12CO[C@@H]1C[C@H](O)[C@@]1(C)C(=O)[C@H](OC(=O)COC3O[C@H](CO)[C@H](O)[C@H](O)[C@H]3O)C3=C(C)[C@@H](OC(=O)[C@H](O)[C@@H](NC(=O)OC(C)(C)C)c4ccccc4)C[C@@](O)([C@@H](OC(=O)c4ccccc4)[C@H]21)C3(C)C` (stereo partly shown) [10-GAG-DT, Galactosyloxyacetyl-10-docetaxel], in the data set with P388 leukemia cells (P388 leukemia implanted mice), the “Antitumor / physiological activity” value was “excellent antitumor activity”. Further, the “Survival effect as compared with paclitaxel” value with P388 leukemia cells (P388 leukemia implanted mice, ratio to paclitaxel) turned out to be 1.2 times.

Turning to `CC(=O)O[C@@]12CO[C@@H]1C[C@H](O)[C@@]1(C)C(=O)[C@H](OC(=O)CO[C@H]3O[C@H](CO)[C@@H](O)[C@H](O)[C@@H]3O)C3=C(C)[C@@H](OC(=O)[C@H](O)[C@@H](NC(=O)OC(C)(C)C)c4ccccc4)C[C@@](O)([C@@H](OC(=O)c4ccccc4)[C@H]21)C3(C)C` [10-MAG-DT (α-anomer), Mannosyloxyacetyl-10-docetaxel], in data set [1], the “Solubility in water relative to paclitaxel” value is recorded as 2596 times and the solubility at 18 h came out at 1040 µg/mL (≈ 1010 µM). In addition, in the data set on P388 leukemia cells, the “Median of Survival Days” value is 9 days and the “% T/C” value was found to be 129%.

Regarding `CC(=O)O[C@@]12CO[C@@H]1C[C@H](O)[C@@]1(C)C(=O)[C@H](OC(=O)COC3O[C@H](CO)[C@@H](O)[C@H](O)[C@@H]3O)C3=C(C)[C@@H](OC(=O)[C@H](O)[C@@H](NC(=O)OC(C)(C)C)c4ccccc4)C[C@@](O)([C@@H](OC(=O)c4ccccc4)[C@H]21)C3(C)C` (stereo partly shown) [10-MAG-DT, Mannosyloxyacetyl-10-docetaxel], the “Survival effect as compared with paclitaxel” value in the data set with P388 leukemia cells (P388 leukemia implanted mice, versus paclitaxel) is recorded as “substantially equivalent to that of paclitaxel”.

As for `CC(=O)O[C@@]12CO[C@@H]1C[C@H](O)[C@@]1(C)C(=O)[C@H](O)C3=C(C)[C@@H](OC(=O)[C@H](O)[C@@H](NC(=O)OC(C)(C)C)c4ccccc4)C[C@@](O)([C@@H](OC(=O)c4ccccc4)[C@H]21)C3(C)C` [Docetaxel, docetaxel], in data set [2] (I. Ringel et al., J. Natl. Cancer Inst., 83, 288 (1991)), the “Solubility in water of docetaxel relative to taxol” value is reported as 35 times. Besides, in data set [2], the “Solubility in water” value is recorded as “very low solubility in water”.

`CC(=O)O[C@H]1C(=O)[C@@]2(C)[C@H]([C@H](OC(=O)c3ccccc3)[C@]3(O)C[C@H](OC(=O)[C@H](O)[C@@H](NC(=O)c4ccccc4)c4ccccc4)C(C)=C1C3(C)C)[C@]1(OC(C)=O)CO[C@@H]1C[C@@H]2O` [Paclitaxel, paclitaxel]: in data set [3], the “Change in body weight” value is recorded as “abrupt decrease in body weight; also recorded: decreased abruptly”. In addition, in the data set on P388 leukemia cells, the “Median of Survival Days” value was 10 days and the “% T/C” value was found to be 143%. For the same compound, the “Solubility in water” value in data set [2] is given as “very low solubility in water; also recorded: low solubility in water”.
